Tests used:
Assay in all cases: relative viability (nuclei count vs DMSO), 5 days (fraction); higher = more cells survive
[1] = compound: CCCS(=O)(=O)Nc1ccc(F)c(C(=O)c2c[nH]c3ncc(-c4ccc(Cl)cc4)cc23)c1F [Vemurafenib] + CC(C)C[C@H](NC(=O)[C@H](Cc1ccccc1)NC(=O)c1cnccn1)B(O)O [Bortezomib] (partner 0.002 µM)
Summary of the method: (§1)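 Cells from lung cancer lines were seeded into 1536-well plates and, one day later, dosed by pin tool. Treatments were either a single drug or a fixed dose of an anchor drug with five library-drug doses (not always all listed) in √10 steps. After 5 days, nuclei were stained in a one-step fixation (final 0.05% Triton X-100, 1% formaldehyde, 1 ug/ml Hoechst) and counted on 4× images, and relative viability is the treated-to-vehicle nuclei ratio, as the median of duplicate plates.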

[2] = compound: COc1cccc2cc(-c3nc([C@H]4CC[C@H](C(=O)O)CC4)n4ncnc(N)c34)[nH]c12 [OSI-027] + CS(=O)(=O)CCNCc1ccc(-c2ccc3ncnc(Nc4ccc(OCc5cccc(F)c5)c(Cl)c4)c3c2)o1 [Lapatinib] (partner 2 µM)
Summary of the method: as §1

[3] = compound: CCCS(=O)(=O)Nc1ccc(F)c(C(=O)c2c[nH]c3ncc(-c4ccc(Cl)cc4)cc23)c1F [Vemurafenib] + O=C(CCCCCCC(=O)Nc1ccccc1)NO [Vorinostat] (partner 1 µM)
Summary of the method: as §1

[4] = compound: Cc1nc(NC(=O)N2CCC[C@H]2C(N)=O)sc1-c1ccnc(C(C)(C)C(F)(F)F)c1 [Alpelisib] + Cc1cc(Nc2cc(N3CCN(C)CC3)nc(Sc3ccc(NC(=O)C4CC4)cc3)n2)n[nH]1 [Tozasertib] (partner 0.1 µM)
Summary of the method: as §1

| Cell Line | relative viability ([1]; first compound 0.03162 µM) | relative viability ([1]; first compound 0.1 µM) | relative viability ([1]; first compound 0.3162 µM) | relative viability ([1]; first compound 1 µM) | relative viability ([2]; first compound 0.01 µM) | relative viability ([2]; first compound 0.03162 µM) | relative viability ([2]; first compound 0.1 µM) | relative viability ([2]; first compound 0.3162 µM) | relative viability ([2]; first compound 1 µM) | relative viability ([3]; first compound 0.03162 µM) | relative viability ([3]; first compound 0.1 µM) | relative viability ([3]; first compound 0.3162 µM) | relative viability ([3]; first compound 1 µM) | relative viability ([4]; first compound 0.04 µM) | relative viability ([4]; first compound 0.1265 µM) | relative viability ([4]; first compound 0.4 µM) | relative viability ([4]; first compound 1.265 µM) | relative viability ([4]; first compound 4 µM) |
| --- | --- | --- | --- | --- | --- | --- | --- | --- | --- | --- | --- | --- | --- | --- | --- | --- | --- | --- |
| 201T | 1.07 | 0.998 | 1.15 | 1.17 | 1.05 | 1.08 | 0.986 | 0.975 | 0.957 | 0.944 | 0.845 | 0.944 | 0.986 | 0.934 | 0.918 | 0.917 | 0.838 | 0.8 |
| H3255 | 0.802 |  | 0.612 | 0.681 | 0.22 | 0.269 | 0.234 | 0.183 | 0.234 | 0.758 |  | 0.709 | 0.638 | 0.702 | 0.683 | 0.767 | 0.431 | 0.438 |
| NCI-H1395 |  |  |  |  | 0.854 | 0.98 | 0.829 | 0.701 | 0.735 | 0.627 | 0.707 | 0.499 | 0.709 | 0.823 | 0.695 | 0.743 | 0.616 | 0.735 |
| NCI-H1355 | 1.21 | 1.19 | 1.15 | 1.23 | 1.13 | 0.957 | 0.873 | 0.561 | 0.363 | 0.56 | 0.58 | 0.566 | 0.642 | 0.539 | 0.489 | 0.528 | 0.441 | 0.373 |
| IA-LM | 0.802 | 0.764 | 0.822 | 0.598 | 0.765 | 0.697 | 0.499 | 0.193 | 0.223 | 0.975 | 0.914 | 0.946 | 0.966 |  |  |  |  |  |
| HCC-827 | 0.968 |  | 0.765 | 1.16 | 0.151 | 0.173 | 0.205 | 0.185 | 0.176 | 0.796 |  | 0.663 | 0.816 | 0.462 | 0.409 | 0.508 | 0.398 | 0.366 |
| NCI-H2085 | 1.05 | 0.91 | 0.914 | 0.847 | 0.7 | 0.799 | 0.565 | 0.506 | 0.434 | 0.703 | 0.736 | 0.618 | 0.968 | 0.825 | 0.718 | 0.907 | 0.762 | 0.746 |
| NCI-H1755 | 0.877 | 0.878 | 0.712 | 0.931 | 1.01 | 1.06 | 1.01 | 0.817 | 0.579 | 0.749 | 0.728 | 0.68 | 0.778 | 0.615 | 0.508 | 0.629 | 0.438 | 0.434 |
| PC-14 | 0.728 |  | 0.88 | 0.777 | 0.3 | 0.306 | 0.293 | 0.255 | 0.179 | 0.72 |  | 0.643 | 0.655 | 0.588 | 0.612 | 0.655 | 0.44 | 0.543 |
| NCI-H3122 | 0.989 | 1.01 | 1.04 | 1.07 | 1.09 | 1.1 | 1.14 | 1.05 | 0.808 | 0.962 | 0.916 | 1.01 | 1.04 | 0.334 | 0.387 | 0.35 | 0.255 | 0.263 |
| NCI-H1703 | 0.527 | 0.438 | 0.32 | 0.257 | 1.33 | 1.1 | 0.889 | 0.736 | 0.365 |  |  |  |  |  |  |  |  |  |
| LCLC-103H | 0.975 | 1.04 | 0.843 | 1.09 |  |  |  |  |  | 0.728 | 0.791 | 0.657 | 0.721 | 0.462 | 0.448 | 0.482 | 0.357 | 0.37 |
| NCI-H1563 | 0.855 | 0.658 | 0.762 | 0.846 | 0.846 | 1.05 | 0.745 | 0.757 | 0.775 |  |  |  |  |  |  |  |  |  |
| SK-MES-1 |  |  |  |  | 0.481 | 0.435 | 0.371 | 0.316 | 0.253 | 1.06 |  | 0.949 | 1.01 | 0.937 | 0.901 | 1.03 | 0.745 | 0.89 |
| SW 900 |  |  |  |  |  |  |  |  |  | 0.41 | 0.466 | 0.636 | 0.379 | 0.734 | 0.5 | 0.88 | 0.571 | 0.358 |
| EBC-1 | 0.453 | 0.553 | 0.622 | 0.741 | 0.187 | 0.217 | 0.223 | 0.199 | 0.203 |  |  |  |  |  |  |  |  |  |
| NCI-H1944 |  |  |  |  | 0.802 | 0.875 | 0.799 | 0.631 | 0.444 | 0.538 |  | 0.671 | 0.515 | 0.251 | 0.226 | 0.267 | 0.218 | 0.171 |
| NCI-H1299 | 0.998 | 0.976 | 0.918 | 1 | 1.02 | 1.04 | 1.04 | 1.01 | 0.645 |  |  |  |  |  |  |  |  |  |
| NCI-H1623 |  |  |  |  |  |  |  |  |  |  |  |  |  | 0.446 | 0.338 | 0.388 | 0.347 | 0.29 |
| NCI-H441 | 0.336 | 0.482 |  | 0.412 |  |  |  |  |  | 0.875 | 0.663 | 0.652 | 0.642 | 0.629 | 0.537 | 0.693 | 0.418 | 0.366 |
| ChaGo-K-1 | 0.934 | 0.725 |  | 1.08 |  |  |  |  |  | 0.743 | 0.762 | 0.605 | 0.762 | 0.202 | 0.202 | 0.211 | 0.194 | 0.197 |
| NCI-H522 |  |  |  |  |  |  |  |  |  | 0.901 | 0.846 | 0.835 | 0.714 | 0.519 | 0.558 | 0.527 | 0.47 | 0.37 |
| NCI-H1648 |  |  |  |  |  |  |  |  |  |  | 0.315 | 0.706 | 0.546 |  | 0.68 | 0.607 | 0.27 | 0.22 |
| A549 |  |  |  |  | 1.1 | 0.878 | 0.764 | 0.497 | 0.314 |  |  |  |  |  |  |  |  |  |
| Calu-6 | 0.897 | 0.939 | 0.96 | 0.832 | 1.06 | 1.06 | 0.953 | 0.829 | 0.621 |  |  |  |  |  |  |  |  |  |
